In patent EP1243271A1, “NASAL DROPS CONTAINING FUSED PYRIDAZINE DERIVATIVES” (Takeda Chemical Industries, Ltd., priority 1999, dated 2001):
Structures can show the parent of a compound that is named as a salt.

test system: Male Hartley guinea pigs; test: Effect on histamine-induced increases in microvascular permeability in skin in guinea pigs; assay type: in vivo; conditions: Cavia porcellus; 3 mg/kg oral administration 1 hour before histamine; guinea pig skin
Protocol: Male Hartley guinea pigs weighing about 500 g were used. After the dorsal hair was shaved under ether anesthesia, 1 ml of a 2.5% pontamine sky blue solution was injected intravenously, and then 0.1 ml of histamine at 3 µg/ml was injected intradermally into 2 sites (left and right) in the back. Thirty minutes after the injection of histamine, animals were fainted by knocking in the head, decapitated and killed by bleeding, after which the skin of the back was removed. The long and short diameters (mm) of each blue spot were measured and multiplied; the mean product was taken as the vascular permeability index. Test compounds were suspended in a 5% gum arabic solution and orally administered in a volume of 0.2 ml/100 g body weight at 1 hour before histamine administration. Animals in the control group received the same volume of a 5% gum arabic solution. Equation 1 Inhibition (%) of histamine-induced increases in microvascular permeability in skin = 100 × (1-vascular permeability index in the presence of drug/vascular permeability index in control group) [formula]

| Structure (SMILES) | inhibition in vivo at 3 mg/kg [%] |
| --- | --- |
| c1ccc(C(OC2CCN(CCCNc3ccc4ncnn4n3)CC2)c2ccccc2)cc1 [Reference Example B6, 6-[3-[4-(diphenylmethoxy)piperidino]-propylamino][1,2,4]triazolo[1,5-b]pyridazine] | 91 |
| c1ccc(C(OC2CCN(CCCCNc3ccc4ncnn4n3)CC2)c2ccccc2)cc1 [Reference Example B12, 6-[4-[4-(diphenylmethoxy)piperidino]-butylamino][1,2,4]triazolo[1,5-b]pyridazine] | 91 |
| O=C(CCN1CCC(OC(c2ccccc2)c2ccccc2)CC1)Nc1ccc2ncnn2n1 [Reference Example B18, 3-[4-(diphenylmethoxy)piperidino]-N-([1,2,4]triazolo[1,5-b]pyridazin-6-yl)propionamide] | 91 |
| Cc1nc2ccc(NCCCN3CCC(OC(c4ccccc4)c4ccccc4)CC3)nn2n1 [Reference Example B20, 6-[3-[4-(diphenylmethoxy)piperidino]-propylamino]-2-methyl[1,2,4]triazolo[1,5-b]pyridazine] | 92 |
| Cc1nc2ccc(OCCCN3CCC(OC(c4ccccc4)c4ccccc4)CC3)nn2n1 [Reference Example B21, 6-[3-[4-(diphenylmethoxy)piperidino]propoxy]-2-methyl[1,2,4]triazolo[1,5-b]pyridazine] | 91 |
| c1ccc(C(c2ccccc2)N2CCN(CCCCCCNc3ccc4ncnn4n3)CC2)cc1 [Reference Example B37, 6-[6-[4-(diphenylmethyl)-1-piperazinyl]-hexylamino][1,2,4]triazolo[1,5-b]pyridazine] | 92 |
| COc1cn2nc(OCCCN3CCC(OC(c4ccccc4)c4ccccc4)CC3)ccc2n1 [Reference Example B41, 6-[3-[4-(diphenylmethoxy)piperidino]propoxy]-2-methoxyimidazo[1,2-b]pyridazine] | 92 |
| CC(C)(C(=O)O)c1cn2nc(OCCCN3CCC(OC(c4ccccc4)c4ccccc4)CC3)ccc2n1 [Reference Example B45, 2-[6-[3-[4-(diphenylmethoxy)piperidino]-propoxy]imidazo[1,2-b]pyridazin-2-yl]-2-methylpropionic acid] | 91 |

test system: Guinea Pig Eosinophils; test: Suppression of LTB4-induced chemotactic reaction of guinea pig eosinophils; assay type: cell-based, guinea pigs; conditions: Cavia porcellus, Eosinophil, test drug 1 × 10^-5 M, LTB4 10^-8 M, read-out: Suppression Rate (%)
Protocol: To male Hartley guinea pigs, 2 ml of equine serum (Bio-Whittaker, Inc.) was intraperitoneally administered once weekly for 8 consecutive weeks. At 48 hours after final administration, 75 ml of physiological saline was intraperitoneally injected, after which the recovered solution was centrifuged at 400 × g for 5 minutes. The resulting sediment was suspended in 5 ml of Percoll solution (density d=1.07) and layered on top of the discontinuous density layer of Percoll solution (density d=1.112, 5 ml; d=1.095, 10 ml; d=1.090, 10 ml; d=1.085, 5 ml), followed by centrifugation at 1,000 × g for 25 minutes (20°C). The cell layer formed at the interface between density d= 1.112 and density d=1.095 was collected. Erythrocytes present in the collected cell sediment were removed by hypotonic treatment (suspended in water for […]).
The cell sediment was washed 3 times with Hanks' solution containing 10 mM Hepes (Dojin Kagaku) (Hanks-Hepes) and suspended in a Hanks-Hepes solution containing 2% human serum albumin (Wako Pure Chemical Industry or Sigma) (Hanks-Hepes-HSA) to a concentration of 5.56×10^6 cells/ml. Eosinophil purity was 90%, viability was over 98%.
To a 24-well culture dish, which serves as a lower chamber, 600 µl of Hanks-Hepes-HSA solution containing LTB4 (final concentration 10^-8 M, Cascade Biochemical Ltd.), was transferred, followed by incubation at 37°C for 30 minutes in a carbon dioxide incubator. Separately, 200 µl of eosinophil suspension (5×10^6 cells/ml), previously incubated at 37°C for 15 minutes, was added to Chemotaxicell (polycarbonate membrane, pore size 3 µm, thickness 10 µm), which serves as an upper chamber, after the upper chamber was attached to the 24-well culture dish. After 2 hours of reaction in the carbon dioxide incubator, the Chemotaxicell was removed; 60 µl of 2% (w/v) EDTA solution in physiological saline was added to the liquid in the lower chamber. After ice-cooling, the cells migrating into the inner solution of the lower chamber were counted using a blood cell counter [Coulter Counter (trade name)]. The test drug, dissolved in N,N-dimethylformamide (DMF), was added to both the upper and lower chambers to a final concentration of 10^-5 M. Equation 2 Chemotactic reaction suppression rate = [1-(number of migrating cells in the presence of drug/number of migrating cells in the absence of drug)] × 100 [formula] suppression rates of LTB4 -induced chemotactic reaction by test drug (1 × 10^-5 M concentration) were calculated.

| Structure (SMILES) | inhibition at 10 µM [%] |
| --- | --- |
| c1ccc(C(OC2CCN(CCCOc3ccc4ncnn4n3)CC2)c2ccccc2)cc1 [Reference Example B2, 6-[3-[4-(diphenylmethoxy)piperidino]propoxy]-[1,2,4]triazolo[1,5-b]pyridazine fumarate] | 54 |
| c1ccc(C(OC2CCN(CCCNc3ccc4ncnn4n3)CC2)c2ccccc2)cc1 [Reference Example B6, 6-[3-[4-(diphenylmethoxy)piperidino]-propylamino][1,2,4]triazolo[1,5-b]pyridazine] | 64 |
| Cc1nc2ccc(NCCCN3CCC(OC(c4ccccc4)c4ccccc4)CC3)nn2n1 [Reference Example B20, 6-[3-[4-(diphenylmethoxy)piperidino]-propylamino]-2-methyl[1,2,4]triazolo[1,5-b]pyridazine] | 61 |
| CC(C)(C)c1nc2ccc(NCCCN3CCC(OC(c4ccccc4)c4ccccc4)CC3)nn2n1 [Reference Example B34, 2-tert-butyl-6-[3-[4-(diphenylmethoxy)-piperidino]propylamino][1,2,4]triazolo[1,5-b]pyridazine fumarate] | 50 |
| c1ccc(C(OC2CCN(CCCCCCNc3ccc4ncnn4n3)CC2)c2ccccc2)cc1 [Reference Example B35, 6-[6-[4-(diphenylmethoxy)piperidino]-hexylamino][1,2,4]triazolo[1,5-b]pyridazine] | 52 |
| COC(=O)c1nc2ccc(NCCCN3CCC(OC(c4ccccc4)c4ccccc4)CC3)nn2n1 [Reference Example B36, methyl 6-[3-[4-(diphenylmethoxy)piperidino]-propylamino][1,2,4]triazolo[1,5-b]pyridazine-2-carboxylate] | 64 |
| Cc1cc2ncnn2nc1OCCOCCN1CCN(C(c2ccccc2)c2ccccc2)CC1 [Reference Example B47, 6-[2-[2-[4-(diphenylmethyl)-1-piperazinyl]-ethoxy]ethoxy]-7-methyl[1,2,4]triazolo[1,5-b]pyridazine] | 54 |
| Cc1cc2ncnn2nc1OCCCCCCN1CCN(C(c2ccccc2)c2ccccc2)CC1 [Reference Example B51, 6-[6-[4-(diphenylmethyl)-1-piperazinyl]hexyloxy]-7-methyl[1,2,4]triazolo[1,5-b]pyridazine dihydrochloride] | 80 |
| CC(C)c1cc2ncnn2nc1SCCOCCN1CCN(C(c2ccccc2)c2ccccc2)CC1 [Reference Example B59, 6-[2-[2-[4-(diphenylmethyl)-1-piperazinyl]-ethoxy]ethylthio]-7-isopropyl[1,2,4]triazolo[1,5-b]pyridazine dihydrochloride] | 54 |
| CC(C)c1cc2ncnn2nc1OCCOCCN1CCN(C(c2ccccc2)c2ccccc2)CC1 [Reference Example B61, 6-[2-[2-[4-(diphenylmethyl)-1-piperazinyl]-ethoxy]ethoxy]-7-isopropyl[1,2,4]triazolo[1,5-b]pyridazine] | 50 |
| CC(C)(C)c1cc2ncnn2nc1OCCOCCN1CCN(C(c2ccccc2)c2ccccc2)CC1 [Reference Example B62, 7-tert-butyl-6-[2-[2-[4-(diphenylmethyl)-1-piperazinyl]ethoxy]ethoxy][1,2,4]triazolo[1,5-b]pyridazine dihydrochloride] | 52 |
